Reference: patent publication US11931332B2, “Phenyl alkyl carbamate compounds for use in preventing or treating neurodegenerative disease” (priority 2020, dated 2024)

Key:
[1] = test system: rotenone-induced Parkinson's disease model mice; assay: Pole test in rotenone-induced Parkinson's disease model mice; assay type: in vivo, C57BL/6 mice; settings: rotenone 30 mg/kg orally, Example 124 40 mg/kg IP once a day for 35 days; vs rotenone group; not significantly; FIG. 1(B-C)
Description: (§1) C57BL/6 mice (n=61) were purchased from Samtako bio korea Co. Ltd (Osan, Korea.) Mice were housed in the room which offers 12 hours light/dark cycle with a temperature of 20˜22° C.
(§2) Mice were randomly divided into four groups: • Group 1: vehicle control mice, • Group 2: Compound of Example 124—treated mice, • Group 3: rotenone treated mice, • Group 4: Compound of Example 124—rotenone treated mice.
(§3) Rotenone was suspended in 0.5% Carboxymethyl cellulose (CMC) sodium salt. Compound of Example 124 were dissolved in Tween 80. 0.5% CMC and Rotenone (30 mg/kg) were administered orally, the compound of Example 124 (40 mg/kg) was injected intraperitoneally (IP) once a day for 35 days (5 weeks).
(§4) In the present invention, in order to confirm whether the compound of Example 124 (compound 124) improves the motor abnormalities found in rotenone-induced Parkinson's disease model mice, rota-rod test, pole test, and foot printing assay test were performed.
Pole test was performed using the Parkinson's disease model mice of Biological Experiment Example 1 as follows. […] Each trial was recorded through the camera locating in front of the pole. The time mice turned upside down (head down) and the time it completely climbs down the pole was measured through a recorded video file manually by using the software Boris. Results from manually counted files were scored and presented.

[2] = test system: rotenone-induced Parkinson's disease model mice; assay: Foot printing assay (stride length) in rotenone-induced Parkinson's disease model mice; assay type: in vivo, C57BL/6 mice; settings: rotenone 30 mg/kg orally, Example 124 40 mg/kg IP once a day for 35 days
Description: as §1, §2, §3, §4
Foot printing assay was performed using the Parkinson's disease model mice of Biological Experiment Example 1 as follows. Mice paws were dipped with non-toxic water paints (forelimbs in green and hind limbs in blue). Mice were placed in the corner of the enclosed maze with white paper lined through the maze and allowed to walk along the maze freely. […] Fore limb-stride length and hind limb-stride length were measured using ImageJ (NIH).

[3] = test system: TH+ neurons (dopaminergic neurons); assay: Immunohistochemistry with tyrosine hydroxylase (TH) antibody, counting of TH+ neurons in rotenone mice; assay type: in vivo, C57BL/6 mice; settings: rotenone 30 mg/kg orally, Example 124 40 mg/kg IP once a day for 35 days, FIG. 3(A-B)
Description: as §2, §3
Dopaminergic neuron loss has been implicated in motor dysfunction in Parkinson's disease. In the present invention, stained the striatum with Tyrosine hydroxylase (TH) antibody to check out whether compound of Example 124 prevents the TH+ neuron cell death by rotenone.
(§5) Specifically, mice of Biological Experiment Example 1 were anesthetized with sevoflurane and perfused with PBS (phosphate-buffered saline). […]
All the images were taken using a fluorescence microscope (Leica DM LB2). To determine the loss of TH positive neurons and the prevention effect of the compound of Example 124 in the striatum, TH+ neurons were counted by using a cell counter plugin from ImageJ software (NIH).
Immunofluorescence images were analyzed using one-way ANOVA and post hoc analysis using Tukey's post hoc test (GraphPad Prism). […]

[4] = test system: Tyrosine hydroxylase (TH); assay: Western blotting of tyrosine hydroxylase (TH) in ventral midbrain protein of rotenone mice; assay type: in vivo, C57BL/6 mice; settings: rotenone 30 mg/kg orally, Example 124 40 mg/kg IP once a day for 35 days, FIG. 3(C-D)
Description: as §2, §3
(§6) Whole ventral midbrain was homogenized with RIPA buffer containing 1% Triton X 100, 0.5% deoxycholic acid, 0.2% SDS, 150 mM NaCl, 2 mM EDTA, protease inhibitors (PMSF, Aprotinin, NaF, Na3VO4). The homogenate was centrifuged at 13,000 rpm for 30 min on a rotator and the supernatant was used [Vergara, C., et al., Amyloid-beta pathology enhances pathological fibrillary tau seeding induced by Alzheimer PHF in vivo. Acta Neuropathol, 2019. 137(3): p. 397-412.]. Proteins were separated using SDS-PAGE with a concentration gradient of 8-20% SDS gels and transferred onto PVDF membranes (Immobilon P membrane, Millipore). Membranes blocked in 5% skim milk in TBST (Tris-Buffered saline-Tween®20) and immunolabeled with primary antibody, rabbit anti-tyrosine hydroxylase (TH) antibody (1:5000)). […]
(§7) Western blot data were analyzed using a t-test(1-tailed t-test). […]

[5] = test system: phosphorylated tau (p-Tau s262); assay: Western blotting of phosphorylated tau (p-Tau s262) in rotenone mice; assay type: in vivo, C57BL/6 mice; settings: Example 124-rotenone-treated group vs rotenone-vehicle group; not significantly; FIG. 4
Description: as §2, §3, §6, §7

[6] = test system: Acetylated alpha-tubulin (Ace-α-tubulin); assay: Western blotting of acetylated alpha-tubulin in rotenone mice; assay type: in vivo, C57BL/6 mice; settings: Example 124-rotenone-treated group; differences between groups not significant; FIG. 4
Description: as §2, §3, §6, §7

[7] = test system: Phosphorylated alpha-synuclein (s129); assay: Double immunostaining for TH and p-α-synuclein, inclusions in cell bodies of TH+ neurons of rotenone mice; assay type: in vivo, C57BL/6 mice; settings: rotenone 30 mg/kg orally, Example 124 40 mg/kg IP once a day for 35 days; FIG. 5(A-B)
Description: as §2, §3
Specifically, mice of Biological Experiment Example 1 were anesthetized with sevoflurane and perfused with PBS (phosphate-buffered saline). After perfusion, dissected the left hemisphere of the brain from the mice and fixed the right hemisphere brain with 4% PFA for 1 day [Shin, S. J., et al., Jowiseungchungtang Inhibits Amyloid-beta Aggregation and Amyloid-beta-Mediated Pathology in 5XFADMice. Int J Mol Sci, 2018. 19(12).]. The frozen brain was sectioned in the coronal way (30 μm thick) using a cryostat (Leica CM3000, Leica Microsystems, Nussloch, Germany). Sections were stored at deep freezer (−70° C.) until the immunohistochemistry analysis starts.
In all immunofluorescence labeling procedures, rinsed off the brain sections and blocked the tissues with cold PBST (0.1% Triton X-100 in PBS) containing 5% BSA and 5% goat serum at room temperature. […]

GFAP-positive astrocytes = assay: GFAP immunohistochemistry, activation level of astrocytes in striatum of rotenone mice; assay type: in vivo, C57BL/6 mice; settings: rotenone 30 mg/kg orally, Example 124 40 mg/kg IP once a day for 35 days, FIG. 6
Description: as §2, §3, §5
(§8) To determine whether the compound of Example 124 affects regulating the activities of Rotenone-induced reactive astrocyte and microglia, in the present invention, obtained images of brain tissues stained with GFAP (Astrocyte marker) and Iba-1(microglia marker) antibodies. Through acquired images analyzed the activation level of astrocytes and microglia respectively by measuring fluorescent intensity. […]
(§9) All the images were taken using a fluorescence microscope (Leica DM LB2). […] The signal intensity of GFAP and Iba-1 was measured in the chosen fields of the equal area using Image J.

Iba-1-positive microglia = assay: Iba-1 immunohistochemistry, activation level of microglia in striatum of rotenone mice; assay type: in vivo, C57BL/6 mice
Description: as §2, §3, §5, §8, §9

[8] = test system: Amyloid-beta precursor protein (APP); assay: Western blot of APP in Alzheimer's disease in vitro model (SH-SY5Y cells transfected with pcDNA3-APPswe); assay type: cell-based, human; settings: Example 124 100 uM, harvested 24 h after treatment, FIG. 7
Description: In the present invention, the amyloid-beta precursor protein (APP) reduction effect of the compound of Example 124 in an In Vitro model of Alzheimer's disease (AD) was confirmed.
SH-SY5Y, a human neuroblastoma cell line, was used, and when the pcDNA3-APPswe vector was transfected, these cells generate an AD-inducing APP.
SH-SY5Y cells were incubated in DMEM with 10% FBS and 1% penicillin/streptomycin. 500,000 cells/well was plated in a 6 well plate and transfected 24 h later.
Cells were transfected with pcDNA3-APPswe or pcDNA3 vectors using Lipofectamine 2000 (Invitrogen). After 4 h incubation, the transfection mixture (Lipofectamine+Vector) was replaced with 10% FBS in DMEM. compound of Example 124 (100 uM) or vehicle was treated in 20 h after transfection.
Cells were harvested 24 h after the compound of Example 124 treatments. Cells were washed twice with ice-cold PBS and lysed in RIPA buffer (1% Triton X-100, 0.5% deoxycholic acid, 0.2% SDS, 150 mM sodium chloride, 2 mM EDTA) with 1 mM PMSF, 2 ug/ml aprotinin, 10 ug/ml leupeptin, and 10 mM sodium fluoride.
The lysate was passed several times through a 26½-gauge syringe needle and centrifuged at 16,200*g for 20 min. The supernatant was quantified with the Bradford assay. 30 ug of protein samples, separated by SDS-PAGE, were transferred to the PVDF membrane. […]

Amyloid-beta (Aβ) [9] = assay: Immunofluorescence of amyloid-beta in primary cultured cortical neurons; assay type: cell-based; settings: primary cortical neurons treated with amyloid-beta and Example 124 (4 uM) together; FIG. 8
Description: Primary cortical neurons were harvested from the E12-14 embryo. Briefly, isolated cortices were incubated for 20 min at 37° C. in HBSS with 0.25% trypsin-EDTA, 0.1% DNase I. The cortices were dissociated by trituration in NBA media (Neurobasal medium with 2% B27, 2 mM 1-glutamine, and 1% penicillin/streptomycin). Cells were plated in poly-D-lysine coated 24-well plates at 50,000 cells/well. After 3 days of culture, Amyloid-beta and compound of Example 124 (4 uM) were treated.
Cortical neurons were fixed for 15 min at room temperature with 4% paraformaldehyde and 4% sucrose in PBS solution. Fixed neurons were incubated with blocking buffer (3% goat serum, 3% BSA in PBS-T (0.15% Triton-X100)) for 30 min at room temperature. After labeling with a primary antibody, cells were incubated with Alexa Fluor 488- or 568-conjugated secondary antibody. Aβ (6e10, Covance, 1:3000) and NeuN (abl77487, Abcam, 1:2000) were used as primary antibody.

Amyloid-beta (Aβ) [10] = assay: Anti-Aβ staining of brain tissue sections (choroid plexus cells) of treated mice; assay type: in vivo, C57BL/6 mice; settings: orally administered for 6 weeks; vs vehicle (30% PEG400) mice; FIG. 9
Description: Amyloid-beta (Aβ) is a substance that is naturally produced and degraded In Vivo. Therefore, in the present invention, it was attempted to determine whether Amyloid-beta production was reduced in the compound of Example 124-treated mice.
C57BL/6 mice were purchased from Samtako bio Korea Co. Ltd (Osan, Korea.) Mice were housed in the room which offers a 12 hours light/dark cycle with a temperature of 20˜22° C. All experiments and animal care were approved by the Institutional Animal Care and Use Committee of Chonnam National University (Korea).
Mice were divided into a vehicle mice group and a drug-treated group, and then the vehicle (30% PEG400) or compound of Example 124 was orally administered for 6 weeks.
Mice were anesthetized with sevoflurane and perfused with PBS. After perfusion, the right hemisphere brain was fixed with 4% paraformaldehyde for one day. The frozen brains were sectioned at 30 um thickness. The tissue sections were blocked with 3% Goat serum and 3% BSA in cold PBS-T (0.15% Tx-100) for 30 min. Sections were then stained using anti-Aβ (ab5078p, millipore) 1:3000 in PBS. After 3 days of primary antibody labeling, sections were incubated with an Alexa Fluor 568 conjugated secondary antibody for 1 day. For each mouse, 8-10 tissue sections were quantified, and the Aβ intensity was measure at 15 choroid plexus cells. The measurement was done using Image J software.

Question: With CO[C@@H](c1ccccc1Cl)[C@H](C)OC(N)=O [Example 124, 1-(2-chlorophenyl)-(S)-1-methoxypropyl-(S)-2-carbamate] as the compound, how does the “pole test: time climbing down the pole / score” value [1] read?
Answer: Its value is “slightly attenuated”.

Question: And the “stride length of forepaw” value ([2]; FIG. 2(A))?
Answer: Its value is “ameliorated”.

Question: And the “stride length of hind paw” value ([2]; FIG. 2(B))?
Answer: The value was “ameliorated”.

Question: And the “rotenone-induced TH+ cell death (number of TH positive cells)” value [3]?
Answer: Its value is “significantly blocked”.

Question: What about the “tyrosine hydroxylase (TH) expression (TH/B-actin)” value [4] of the same compound?
Answer: Its value is “increased”.

Question: What about the “phosphorylation of tau protein (p-Tau s262)” value [5] of the same compound?
Answer: Its value is “decreased”.

Question: What about the α-tubulin acetylation levels [6] of the same compound?
Answer: The α-tubulin acetylation levels was “increase”.

Question: What about the “accumulation of α-synuclein in the soma (p-α-synuclein inclusions in TH+ neurons)” value [7] of the same compound?
Answer: The value was “dramatically decreased”.

Question: What about the “activation of astrocytes by rotenone (GFAP intensity)” value (GFAP-positive astrocytes) of the same compound?
Answer: Its value is “attenuated”.

Question: And the “efficacy in microglia compared with astrocytes (relative Iba-1 and GFAP intensity)” value (Iba-1-positive microglia; FIG. 6(C-D))?
Answer: Its value is “more dramatic and obvious in microglia than in astrocytes”.

Question: And the “activation of microglia by rotenone (Iba-1 intensity)” value (Iba-1-positive microglia; rotenone 30 mg/kg orally, Example 124 40 mg/kg IP once a day for 35 days, FIG. 6)?
Answer: The value was “attenuated”.

Question: And the “amount of APP protein (APP/B-actin)” value [8]?
Answer: Its value is “decreased”.

Question: What about the amount of amyloid-beta (Amyloid-beta (Aβ) [9]) of the same compound?
Answer: The amount of amyloid-beta was “decreased”.

Question: What about the “amount of endogenous amyloid-beta (Aβ intensity)” value (Amyloid-beta (Aβ) [10]) of the same compound?
Answer: The value was “reduced”.
